Results on 2 compounds are retold here after US8114872B2, “Triazolyl aminopyrimidine compounds” (Eli Lilly and Company, priority 2007, dated 2012).

In one data set the test system is HeLa Cells. In words: pHH3(S10), Mitotic Cells, and DNA Content Assays. The data set is classed as cell-based. The following applies: Homo sapiens, 23 hours exposure. As to the method:
HeLa Cells are plated at 200 cells/well in 96 well […] Dickinson BIOCOAT™ plates, and are incubated in MEM (Minimum Essential Medium) with 10% FBS (Fetal Bovine Serum) in 37° C., 5% CO2 for 24 hours. Cells are treated by adding compound (in 0.25% DMSO) to the medium, dosing at 10 points across the range […] to 0.0098 μM. After 23 hours exposure to the compounds, cells are fixed, for example with the PREFER™ fixative for 30 min then are permeabilized with 0.1% TRITON® X100 in phosphate buffered saline (PBS) solution for 15 min. Cells are washed 3 times with PBS then digested with 50 μg/mL RNAse. Primary antibody, phosphohistone H3, is added at 1:500 in PBS with 1% bovine serum albumin (BSA) to the cells over night at 4° C. After 3 PBS washes, cells are incubated with Alexa488 labeled secondary antibody for 1 hour at RT. Again they are washed 3 times with PBS, and then 15 μM propidium iodide is added for 30 min to stain nuclei. Fluorescence Plates are scanned with ACUMEN EXPLORER™ [Laser-scanning fluorescence microplate cytometer (comprising of 488 nm argon ion laser excitation and multiple photomultiplier tube detection), manufactured by TTP LABTECH LTD] to measure anti-phosphohistone H3 Serine 10, DNA content and mitotic cells as measured by DNA condensation. Image analysis are based on cellular fluorescent signals for identifying cells in different subpopulations. pHH3(S10) positive cells are identified by mean intensity at 500-530 nm above the threshold. Total intensity at 655-705 nm from propidium iodide/DNA is used to identify individual cells (cells with DNA content from 2N to 4N) and subpopulations in cell cycle (2N cells, 4N cells). Peak intensity at 575-640 nm is used to identify DNA condensation that is used as the marker to identify mitotic cells among 4N cells. Assay outputs are percentage of each identified subpopulations, % pHH3, % 2N, % 4N, % mitotic and total cell number. The EC50 is determined by curve fitting to a four parameter logistic for each output using ACTIVITY BASE™.

Another data set relates to HCT116 cells. The data set is described as follows: Antiproliferative Assay (Alamar Blue). The data set is classed as cell-based. The following applies: Homo sapiens, HCT-116, e.g. 72 hours exposure, n=2, MSR 3.1, racemate, read-out: average IC50 (cell proliferation). As to the method:
The effects of compounds on cell proliferation can be determined using cells and cell proliferation methods well-known in the art (Robert C. Squatrito et al., Gynecological Oncology, 58, 101-105, (1995)). For example, HCT116 cells, which may be obtained from the American Type Culture Collection, may be seeded at ˜2000 cells/well in 96-well plates and allowed to attach overnight in a humidified CO2 incubator at 37° C. Following the 20-24 hour incubation, half-log serially diluted compounds are added and the plates are returned to the incubator. After an appropriate length of exposure (e.g., 72 hours), cell proliferation is estimated using well-known methods. In one method, 10 μL of a tetrazolium salt, such as Alamar Blue™ is added to the cell plates. After an appropriate exposure to the dye, fluorescence (530 nm excitation, 580 nm emission) is determined.
On the technique in general: Resazurin is reduced to fluorescent resorufin, in cell work by metabolically active cells.

Data set [1] has as its target T1, Plk1-Flag-His6 tag fusion enzyme (Human Plk1) (Homo sapiens, UniProt P53350).
T1 construct: made in house; host or cells: Sf9 insect cells (baculovirus, pFastBac vector); substrate in E. coli BL21 (pGEX-2T)
The data set is described as follows: Plk1 Inhibition Assay (33P-ATP filter plate kinase reaction, GST-Cdc25C(1-206) substrate). The class given is biochemical. The following applies: 5.0 μM ATP, RT 60 min; MSR 3.6; racemate; read-out: Plk1 IC50 (absolute IC50). An excerpt: Human Plk1 cDNA may be directly linked at one of its termini with a polynucleotide sequence expressing a His6 tag, such as the C-terminal FLAG-His6 tag, and inserted into an appropriate expression vector, such as a pFastBac™ vector (Invitrogen) and transfected into an appropriate system, such as baculovirus similar to what has been reported by Yue-Wei Qian, et al., Science, 282, 1701 (1998) for xPlk1. If a viral expression system is used, then the virus (e.g., baculovirus bearing a Plk1-Flag-His6 tag polynucleotide construct) is infected into a culture of a suitable host cell, such as Sf9 cells. […]
Plk1 kinase reactions contain Plk1-Flag-His6 tag fusion enzyme (0.2 ng/μL) in a buffer containing 50 mM HEPES, pH 7.3, 1.0 mM dithiothreitol, 5.0 μM ATP, 10 mM MgCl2, 0.01% TRITON® X-100, 0.4 μCi ^33P-ATP, and 0.06 μg/μL GST-Cdc25c (1-206) peptide. […] Wells are dried before addition of 40 μL of MicroScintTM20 (Packard) and then counted on a Wallac MICROBETA® Jet. The percentage inhibition values from the 10-point concentration response data are subsequently analyzed, for example, using ACTIVITY BASE™ software (IDBS), using a 4-parameter logistic equation. Absolute IC50 values are calculated from the resulting curve fit.

The conditions of data set [2]: in man, cited from earlier work.
Data set [3] concerns HCT116, A549 and NCIH460 murine xenografts. The following applies: cited from earlier work.

Like-named read-outs stand apart in the source and are kept apart here.

T1 sequence (P53350 whole entry, the tested form may be a part): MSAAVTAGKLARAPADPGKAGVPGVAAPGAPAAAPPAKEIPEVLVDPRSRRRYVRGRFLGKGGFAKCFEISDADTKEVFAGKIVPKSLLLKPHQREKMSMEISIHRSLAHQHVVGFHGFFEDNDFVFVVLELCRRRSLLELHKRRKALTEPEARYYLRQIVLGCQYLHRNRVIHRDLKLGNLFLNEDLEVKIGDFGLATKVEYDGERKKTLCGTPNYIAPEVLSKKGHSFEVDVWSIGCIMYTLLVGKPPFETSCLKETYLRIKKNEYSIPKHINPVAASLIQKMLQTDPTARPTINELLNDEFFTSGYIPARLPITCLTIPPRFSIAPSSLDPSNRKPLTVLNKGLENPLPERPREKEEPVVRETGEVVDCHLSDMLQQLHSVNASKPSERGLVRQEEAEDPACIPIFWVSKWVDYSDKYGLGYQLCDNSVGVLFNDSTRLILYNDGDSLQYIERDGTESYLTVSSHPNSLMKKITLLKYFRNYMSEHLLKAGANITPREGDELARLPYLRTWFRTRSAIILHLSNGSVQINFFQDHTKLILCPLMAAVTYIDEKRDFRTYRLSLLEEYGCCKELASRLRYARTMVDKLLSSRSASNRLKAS

In the case of `CC(N)c1cnc(F)cc1-c1cccc2cc(-c3nc(NCCn4ccnn4)ncc3F)sc12` (racemic) [Example 41, N-(2-(1H-1,2,3-Triazol-1-yl)ethyl)-4-(7-(5-(1-aminoethyl)-2-fluoropyridin-4-yl)benzo[b]thiophen-2-yl)-5-fluoropyrimidin-2-amine], the EC50 in the data set on HeLa Cells (MSR 2.4, racemate, read-out: DNA content EC50) is 30 nM; in the data set with HeLa Cells (MSR 2.5, racemate, read-out: mitotic EC50), 23 nM; in the data set on HeLa Cells (MSR 2.6, racemate, read-out: pHH3(s10) EC50), 25 nM. Also, the IC50 came to 31 nM in the data set with HCT116 cells and 12 nM in data set [1].

On to `CC[C@@H]1C(=O)N(C)c2cnc(Nc3ccc(C(=O)NC4CCN(C)CC4)cc3OC)nc2N1C1CCCC1` [BI-2536], for which the dose-limiting toxicity entry in data set [2] (phase II clinical trials) is listed as “dose limited by myelosupression”. Besides, in data set [2], the “clearance (CL)” value is listed as over 1000 mL/min. The “activity in preclinical xenograft models” value in data set [3] is “demonstrated activity”.

As a reminder, the EC50 is the concentration needed to bring the measured effect to its halfway point.
